One assay addresses MNK2 (Homo sapiens, UniProt Q9HBH9). The assay is described as follows: biochemical. Conditions: read-out: inhibition of MNK2.
Another assay deals with T1, FLT3 (D835Y) (Homo sapiens, UniProt P36888, D835Y).
T1 sequence (P36888 27-993 D835Y): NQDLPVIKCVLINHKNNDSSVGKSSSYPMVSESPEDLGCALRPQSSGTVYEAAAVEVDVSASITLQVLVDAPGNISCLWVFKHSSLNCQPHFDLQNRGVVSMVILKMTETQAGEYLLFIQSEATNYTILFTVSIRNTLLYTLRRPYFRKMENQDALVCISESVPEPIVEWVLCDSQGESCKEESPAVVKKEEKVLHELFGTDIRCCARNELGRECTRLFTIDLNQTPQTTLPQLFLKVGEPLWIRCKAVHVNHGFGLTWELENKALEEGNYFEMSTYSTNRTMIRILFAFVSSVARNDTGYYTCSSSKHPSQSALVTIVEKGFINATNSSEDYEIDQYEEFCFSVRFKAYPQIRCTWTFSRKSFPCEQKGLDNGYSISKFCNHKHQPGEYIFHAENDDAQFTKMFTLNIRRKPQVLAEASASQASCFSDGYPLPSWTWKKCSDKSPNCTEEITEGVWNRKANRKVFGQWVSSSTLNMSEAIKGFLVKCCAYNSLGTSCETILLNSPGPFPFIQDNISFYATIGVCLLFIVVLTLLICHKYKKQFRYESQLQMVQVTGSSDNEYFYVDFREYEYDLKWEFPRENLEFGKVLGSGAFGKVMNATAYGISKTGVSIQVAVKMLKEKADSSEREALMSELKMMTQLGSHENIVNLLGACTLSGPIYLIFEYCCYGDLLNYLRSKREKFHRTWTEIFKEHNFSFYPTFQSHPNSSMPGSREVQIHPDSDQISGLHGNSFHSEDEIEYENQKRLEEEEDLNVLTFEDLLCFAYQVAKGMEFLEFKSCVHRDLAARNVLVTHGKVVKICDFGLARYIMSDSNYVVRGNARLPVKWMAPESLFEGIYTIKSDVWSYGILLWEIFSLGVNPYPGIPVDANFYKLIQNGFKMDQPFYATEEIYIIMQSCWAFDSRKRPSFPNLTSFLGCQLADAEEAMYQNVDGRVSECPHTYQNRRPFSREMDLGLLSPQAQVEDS
The assay is described as follows: Reaction Biology 33P-ATP kinase assay, FLT3. The note with it: read-out: inhibition against FLT3(D835Y).

The target of a further assay is c-SRC (Homo sapiens, UniProt P12931). Briefly: Reaction Biology 33P-ATP kinase assay, c-SRC. The note with it: read-out: inhibition against c-Src.
The test system of the next assay is MOLM14. Briefly: CellTiter-Blue cell viability, MOLM14. The class given is cell-based. Conditions: Homo sapiens, MOLM-14, 72 h, read-out: IC50 against MOLM14. On the technique in general: Resazurin is reduced to fluorescent resorufin, in cell work by metabolically active cells.
The next assay concerns the target T2, FLT3 (ITD) (Homo sapiens, UniProt P36888, ITD).
T2 sequence (P36888 564-993): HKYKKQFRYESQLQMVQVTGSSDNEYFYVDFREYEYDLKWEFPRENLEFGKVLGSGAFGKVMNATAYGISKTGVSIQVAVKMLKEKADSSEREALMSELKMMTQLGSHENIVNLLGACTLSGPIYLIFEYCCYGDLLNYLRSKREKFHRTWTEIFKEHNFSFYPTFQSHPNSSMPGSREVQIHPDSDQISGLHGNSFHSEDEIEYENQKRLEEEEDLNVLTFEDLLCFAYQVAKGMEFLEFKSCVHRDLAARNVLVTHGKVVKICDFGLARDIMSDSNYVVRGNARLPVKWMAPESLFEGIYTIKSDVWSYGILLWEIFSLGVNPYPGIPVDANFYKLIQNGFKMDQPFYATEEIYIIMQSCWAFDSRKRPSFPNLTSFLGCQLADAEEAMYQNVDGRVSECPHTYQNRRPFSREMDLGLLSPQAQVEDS
Briefly: Reaction Biology 33P-ATP kinase assay, FLT3. Conditions: read-out: inhibition against FLT3(ITD).

Another assay deals with c-Kit (Homo sapiens, UniProt P10721). The assay is described as follows: Reaction Biology 33P-ATP kinase assay, c-Kit. The class given is biochemical.
The next assay has as its system H520. The assay is described as follows: CellTiter-Blue cell viability, H520. The note with it: Homo sapiens, NCI-H520, 72 h, read-out: IC50 against H520. The class given is cell-based.
A further assay has as its system MV-4-11. The assay is described as follows: CellTiter-Blue cell viability, MV-4-11. It is filed as cell-based. Conditions: Homo sapiens, MV4-11, 72 h, read-out: IC50 against MV-4-11.
Another assay concerns MOLM14-D835Y. Briefly: CellTiter-Blue cell viability, MOLM14-D835Y. It is filed as cell-based. Conditions: Homo sapiens, 72 h, read-out: IC50 against MOLM14-D835Y.
The subject of another assay is K562. Briefly: CellTiter-Blue cell viability, K562. It is filed as cell-based, human. Conditions: for IC50: Homo sapiens, K562, 72 h, read-out: IC50 against K562.
In a further assay the test system is KCL22-IR. The assay is described as follows: CellTiter-Blue cell viability, KCL22-IR. The class given is cell-based, human. Conditions: for IC50: Homo sapiens, 72 h, read-out: IC50 against KCL22-IR.
The test system of the next assay is MOLM13-res. The assay is described as follows: CellTiter-Blue cell viability, MOLM13-res. It is filed as cell-based. Conditions: Homo sapiens, 72 h, read-out: IC50 against MOLM13-res.
A further assay concerns MOLM14-F691L. Briefly: CellTiter-Blue cell viability, MOLM14-F691L. It is filed as cell-based. Conditions: Homo sapiens, MOLM-14, 72 h, read-out: IC50 against MOLM14-F691L.
For the next assay, the system named is KCL22. The assay is described as follows: CellTiter-Blue cell viability, KCL22. It is filed as cell-based, human. Conditions: for IC50: Homo sapiens, KCL-22, 72 h, read-out: IC50 against KCL22.
The test system of another assay is LC2/Ad. The assay is described as follows: CellTiter-Blue cell viability, LC2/Ad. It is filed as cell-based. The note with it: Homo sapiens, LC-2-ad, 72 h, read-out: IC50 against LC2/Ad.
The next assay addresses ABL1 (T315I) (Homo sapiens, UniProt P00519, T315I). The assay is described as follows: Reaction Biology 33P-ATP kinase assay, ABL1. The note with it: read-out: inhibition against ABL1(T315I).

The values that follow come from paper PMC7033671 (ACS Omega, 2020).

Each structure is given as a SMILES string.

Chain of c-SRC (P12931 whole entry): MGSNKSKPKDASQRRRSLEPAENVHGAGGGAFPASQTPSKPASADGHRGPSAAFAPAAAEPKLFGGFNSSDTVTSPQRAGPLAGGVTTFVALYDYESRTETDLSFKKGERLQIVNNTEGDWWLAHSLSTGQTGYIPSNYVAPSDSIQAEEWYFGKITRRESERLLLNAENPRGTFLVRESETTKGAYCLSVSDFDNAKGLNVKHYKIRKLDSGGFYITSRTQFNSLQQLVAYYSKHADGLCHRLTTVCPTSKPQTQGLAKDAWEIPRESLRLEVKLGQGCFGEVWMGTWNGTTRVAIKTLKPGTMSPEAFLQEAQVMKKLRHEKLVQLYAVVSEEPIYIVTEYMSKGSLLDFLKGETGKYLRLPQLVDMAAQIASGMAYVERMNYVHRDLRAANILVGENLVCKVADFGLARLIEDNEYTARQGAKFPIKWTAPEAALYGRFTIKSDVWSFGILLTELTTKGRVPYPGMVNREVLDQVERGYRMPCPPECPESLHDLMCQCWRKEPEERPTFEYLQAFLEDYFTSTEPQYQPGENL
Chain of MNK2 (Q9HBH9 whole entry): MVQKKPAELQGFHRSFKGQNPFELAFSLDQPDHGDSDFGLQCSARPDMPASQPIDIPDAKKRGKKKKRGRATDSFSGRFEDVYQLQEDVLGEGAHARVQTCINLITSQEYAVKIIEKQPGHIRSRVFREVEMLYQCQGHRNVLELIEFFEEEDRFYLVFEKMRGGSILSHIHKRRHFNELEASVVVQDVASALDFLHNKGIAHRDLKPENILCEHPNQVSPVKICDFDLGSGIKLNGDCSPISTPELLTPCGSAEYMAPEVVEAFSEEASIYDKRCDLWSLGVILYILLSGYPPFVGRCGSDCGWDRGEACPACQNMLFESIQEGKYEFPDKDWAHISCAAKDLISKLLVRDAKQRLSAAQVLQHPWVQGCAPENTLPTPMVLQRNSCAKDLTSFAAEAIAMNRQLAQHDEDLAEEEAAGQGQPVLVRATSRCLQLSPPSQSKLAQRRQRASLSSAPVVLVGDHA
Chain of c-Kit (P10721 26-976): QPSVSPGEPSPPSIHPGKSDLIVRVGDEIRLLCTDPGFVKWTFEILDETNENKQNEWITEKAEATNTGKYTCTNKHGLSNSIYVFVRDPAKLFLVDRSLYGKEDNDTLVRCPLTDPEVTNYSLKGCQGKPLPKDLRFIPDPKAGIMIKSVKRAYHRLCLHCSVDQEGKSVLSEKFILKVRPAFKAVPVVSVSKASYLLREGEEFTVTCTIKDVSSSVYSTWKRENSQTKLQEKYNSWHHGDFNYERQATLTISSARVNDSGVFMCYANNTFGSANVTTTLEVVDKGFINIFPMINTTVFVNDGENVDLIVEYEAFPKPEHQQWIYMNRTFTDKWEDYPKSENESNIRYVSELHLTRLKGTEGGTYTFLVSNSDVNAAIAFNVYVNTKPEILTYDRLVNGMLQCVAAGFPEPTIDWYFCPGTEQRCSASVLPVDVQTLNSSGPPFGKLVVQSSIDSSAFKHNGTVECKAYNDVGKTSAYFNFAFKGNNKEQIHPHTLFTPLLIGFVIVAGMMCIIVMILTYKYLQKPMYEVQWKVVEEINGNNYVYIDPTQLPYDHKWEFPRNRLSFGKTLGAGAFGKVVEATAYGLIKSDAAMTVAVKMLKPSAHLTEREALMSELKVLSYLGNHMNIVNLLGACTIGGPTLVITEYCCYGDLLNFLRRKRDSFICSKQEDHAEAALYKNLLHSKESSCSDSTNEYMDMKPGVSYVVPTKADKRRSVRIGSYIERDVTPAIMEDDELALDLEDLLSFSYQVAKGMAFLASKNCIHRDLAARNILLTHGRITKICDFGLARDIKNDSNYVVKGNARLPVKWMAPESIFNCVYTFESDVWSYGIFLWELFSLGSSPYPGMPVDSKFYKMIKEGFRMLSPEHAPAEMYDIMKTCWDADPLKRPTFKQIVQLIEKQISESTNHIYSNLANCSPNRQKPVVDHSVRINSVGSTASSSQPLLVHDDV

By inhibition is commonly meant the percentage by which the read-out fell short of the control. Consider `CN1CCN(Cc2ccc(NC(=O)c3cncc(C#Cc4cnc5cccnn45)c3)cc2C(F)(F)F)CC1` [HSN748, 5-(Imidazo[1,2-b]pyridazin-3-ylethynyl)-N-(4-((4-methylpiperazin-1-yl)methyl)-3-(trifluoromethyl)phenyl)nicotinamide], for which, at MNK2, the inhibition at 0.123 µM is 85%. The inhibition at 0.111 µM on FLT3 (D835Y) is 87%; on c-SRC it was less than 10%. In addition, the IC50 in the assay with MOLM14 came to 0.25 nM; against c-Kit, 96 ± 4.21 nM. Moreover, the inhibition at 0.004 µM at FLT3 (ITD) came out at 86%.

As to `Cc1ccc(C(=O)Nc2ccc(CN3CCN(C)CC3)c(C(F)(F)F)c2)cc1C#Cc1cnc2cccnn12` [ponatinib, reference compound], the IC50 was determined as 128 nM in the assay with H520; 0.09 nM in the assay on MV-4-11; 52.6 nM with MOLM14-D835Y; 0.6 ± 0.002 nM with K562; 0.66 ± 0.005 nM with KCL22-IR; 24.1 nM in the assay with MOLM13-res. Besides, the IC50 with MOLM14 came out at 0.45 nM; in the assay on MOLM14-F691L it was 6.8 nM; with KCL22 it was 0.14 ± 0.003 nM; in the assay on LC2/Ad it was 35.1 nM. Moreover, the inhibition at 0.123 µM at MNK2 was determined as 32%. The inhibition at 0.111 µM at c-SRC amounted to 98%. In addition, at FLT3 (ITD), the inhibition at 0.004 µM is less than 40%.

Consider `CN1CCN(Cc2ccc(NC(=O)c3cncc(C#Cc4cnc5ccccn45)c3)cc2C(F)(F)F)CC1` [HSL381, 5-(Imidazo[1,2-a]pyridin-3-ylethynyl)-N-(4-((4-methylpiperazin-1-yl)methyl)-3-(trifluoromethyl)phenyl)nicotinamide], for which the inhibition at 0.123 µM on MNK2 is 84%; on ABL1 (T315I) it was 73%. Also, the IC50 in the assay with K562 is 0.57 ± 0.003 nM; in the assay on KCL22-IR, 4.24 ± 0.05 nM; in the assay on KCL22, 0.89 ± 0.005 nM. In addition, the inhibition at 0.004 µM on FLT3 (ITD) was 91%.

Regarding `CN1CCN(Cc2ccc(NC(=O)c3cncc(C#Cc4cnc5cnccn45)c3)cc2C(F)(F)F)CC1` [HSL385, 5-(Imidazo[1,2-a]pyrazin-3-ylethynyl)-N-(4-((4-methylpiperazin-1-yl)methyl)-3-(trifluoromethyl)phenyl)nicotinamide], at MNK2, the inhibition at 0.123 µM is 72%. The IC50 with K562 worked out at 0.94 ± 0.002 nM; in the assay with KCL22-IR it was 17.2 ± 0.86 nM; in the assay with KCL22 it was 2.62 ± 0.06 nM.

Regarding `CN1CCN(Cc2ccc(C(=O)Nc3cncc(C#Cc4cnc5cccnn45)c3)cc2C(F)(F)F)CC1` [HSL338, N-(5-(Imidazo[1,2-b]pyridazin-3-ylethynyl)pyridin-3-yl)-4-((4-methylpiperazin-1-yl)methyl)-3-(trifluoromethyl)benzamide], the figures for the IC50 in the assay on K562, in the assay with KCL22-IR and in the assay with KCL22 were 0.45 ± 0.002 nM, 4.24 ± 0.05 nM and 1.4 ± 0.02 nM, respectively. In addition, at FLT3 (ITD), the inhibition at 0.004 µM stood at 84%.

For the compound `Cc1ncc(C(=O)Nc2ccc(CN3CCN(C)CC3)c(C(F)(F)F)c2)cc1C#Cc1cnc2cccnn12` [HSL420, 5-(Imidazo[1,2-b]pyridazin-3-ylethynyl)-6-methyl-N-(4-((4-methylpiperazin-1-yl)methyl)-3-(trifluoromethyl)phenyl)nicotinamide], the IC50 is 0.06 ± 0.002 nM in the assay on K562, 0.46 ± 0.01 nM in the assay with KCL22-IR and 0.06 ± 0.002 nM with KCL22. Moreover, at c-SRC, the inhibition at 0.111 µM was 32%. The inhibition at 0.123 µM at ABL1 (T315I) is 83%.

`CN1CCN(Cc2ccc(NC(=O)c3cccc(C#Cc4cnc5cccnn45)c3)cc2C(F)(F)F)CC1` [HSL331, 3-(Imidazo[1,2-b]pyridazin-3-ylethynyl)-N-(4-((4-methylpiperazin-1-yl)methyl)-3-(trifluoromethyl)phenyl)benzamide]: the IC50 turned out to be 0.26 ± 0.002 nM in the assay on K562, 2.86 ± 0.04 nM in the assay with KCL22-IR and 0.63 ± 0.002 nM in the assay with KCL22.

On to `CN1CCN(Cc2ccc(NC(=O)c3cncc(C#Cc4cnc5ncccn45)c3)cc2C(F)(F)F)CC1` [HSL382, 5-(Imidazo[1,2-a]pyrimidin-3-ylethynyl)-N-(4-((4-methylpiperazin-1-yl)methyl)-3-(trifluoromethyl)phenyl)nicotinamide], for which the “IC50 against K562” value in the assay on K562 (CML cell line (ABL1), 72 h treatment) was “inactive”. In addition, the IC50 in the assay on KCL22-IR and with KCL22 was more than 100 nM each time. Besides, the “IC50 against KCL22-IR” value in the assay with KCL22-IR (imatinib-resistant CML line, 72 h treatment) was “inactive”. In addition, the “IC50 against KCL22” value in the assay with KCL22 (CML cell line, 72 h treatment) is “inactive”.

With `CN1CCN(Cc2ccc(NC(=O)c3cncc(C#Cc4cnc5ccnn5c4)c3)cc2C(F)(F)F)CC1` [HSL412, N-(4-((4-Methylpiperazin-1-yl)methyl)-3-(trifluoromethyl)phenyl)-5-(pyrazolo[1,5-a]pyrimidin-6-ylethynyl)nicotinamide], the values for the IC50 in the assay with K562, in the assay on KCL22-IR and in the assay on KCL22 were 28.1 ± 0.6 nM, more than 100 nM and 28.1 ± 0.37 nM, respectively.

For `CN1CCN(Cc2ccc(NC(=O)c3cncc(C#Cc4cncc5nccn45)c3)cc2C(F)(F)F)CC1` [HSL407, 5-(Imidazo[1,2-a]pyrazin-5-ylethynyl)-N-(4-((4-methylpiperazin-1-yl)methyl)-3-(trifluoromethyl)phenyl)nicotinamide], the IC50 in the assay with K562 was 1.83 ± 0.02 nM; with KCL22-IR it was 49.7 ± 2.5 nM; with KCL22, 2.93 ± 0.04 nM.
